The text below walks through data of patent publication US20200262865A1, “COMPOSITIONS AND METHODS FOR TREATING CLOSTRIDIUM ASSOCIATED DISEASES” (REGENTS OF THE UNIVERSITY OF MINNESOTA, priority 2016, published 2020).

The conditions of data set [1]: rat, in vivo; cited from earlier work.
Data set [2] relates to highly virulent NAP1 strain of C. difficile. To be noted: cited from earlier work.
For data set [3], the system named is Spores from a NAP1 strain of C. difficile. As to the kind of experiment: Optical density (OD600) C. difficile spore germination assay. Type of data set: cell-based, Clostridium difficile. Particulars: BHIS with 2000 μM TCA, OD600 over 20 minutes; for IC100: read-out: concentration giving essentially complete inhibition of spore germination.
A further data set relates to NAP1 spores. Nature of the data set: Phase-contrast (microscope) spore count assay. To be noted: for Percent Spore Germination t20 / Percent Spore Germination Relative to control / Percent Spore Germination t0: 10 μM bile acid analog; for Percent Spore Germination t20 / Percent Spore Germination Relative to control / inhibitor of spore germination (rating in words from Table 1 data): 2000 μM taurocholic acid; for Percent Spore Germination t20 / Percent Spore Germination Relative to control: after 20 minutes; for Percent Spore Germination t0: time zero, before exposure to TCA; for inhibitor of spore germination (rating in words from Table 1 data): 10 μM, 20 minutes. Type of data set: cell-based, Clostridium difficile.

The mark [4] stands for this setting: Clostridioides difficile, 20 min.

Molecules are shown by their SMILES. Like-named read-outs stand apart in the source and are kept apart here.

Regarding `CC(CCC(=O)O)C1CCC2C3C(OS(=O)(=O)O)CC4CC(O)CCC4(C)C3CCC12C` (stereo not shown) [C7-sulfated UDCA], in data set [1], the “absorption from the colon” value is listed as “poorly absorbed”.
Turning to `C[C@H](CCC(=O)Nc1cccc(S(=O)(=O)O)c1)[C@H]1CC[C@H]2[C@@H]3[C@H](O)C[C@@H]4C[C@H](O)CC[C@]4(C)[C@H]3C[C@H](O)[C@]12C` [CamSA], the “efficacy at inhibiting germination” value in data set [2] is on record as “very little efficacy”.
For the molecule `COC(=O)CC[C@@H](C)[C@H]1CC[C@H]2[C@@H]3[C@H](O)C[C@@H]4C[C@H](O)CC[C@]4(C)[C@H]3CC[C@]12C` [Comparative Example 1, reference compound], in data set [3] (setting [4]), the IC100 was determined as 500 µM. In the data set with NAP1 spores, the “Percent Spore Germination t20” value worked out at 71 ± 1%, the “Percent Spore Germination Relative to control” value came out at 73 ± 1%, the “Percent Spore Germination t0” value was 25 ± 6% and the “inhibitor of spore germination (rating in words from Table 1 data)” value (“inhibitor of spore germination” below) was “weak inhibitors”.
With `COC(=O)CC[C@@H](C)[C@H]1CC[C@H]2[C@@H]3[C@@H](O)C[C@@H]4C[C@H](O)CC[C@]4(C)[C@H]3CC[C@]12C` [Comparative Example 2], the IC100 in data set [3] (setting [4]) was determined as 100 µM.
Regarding `CCCCNC(=O)CC[C@@H](C)[C@H]1CC[C@H]2[C@@H]3[C@H](O)C[C@@H]4C[C@H](O)CC[C@]4(C)[C@H]3CC[C@]12C` [Comparative Example 3], in data set [3] (setting [4]), the IC100 was 500 µM.
For the molecule `CCCCNC(=O)CC[C@@H](C)[C@H]1CC[C@H]2[C@@H]3[C@@H](O)C[C@@H]4C[C@H](O)CC[C@]4(C)[C@H]3CC[C@]12C` [Comparative Example 4], the IC100 in data set [3] (setting [4]) is 500 µM.
For `CO[C@H]1C[C@@H]2C[C@H](O)CC[C@]2(C)[C@H]2CC[C@]3(C)[C@@H]([C@H](C)CCC(=O)O)CC[C@H]3[C@H]12` [Comparative Example 10, reference compound], in data set [3], the “concentration giving partial inhibition of spore germination” value (“concentration giving partial inhibition” below) is on record as 0.5 mM. Besides, in the data set on NAP1 spores, the “Percent Spore Germination t20” value amounted to 71 ± 2%, the “Percent Spore Germination Relative to control” value stood at 75 ± 2%, the “Percent Spore Germination t0” value amounted to 25 ± 4% and the “inhibitor of spore germination” value is “weak inhibitors”.
For the molecule `COC(=O)CC[C@@H](C)[C@H]1CC[C@H]2[C@@H]3[C@@H](OC)C[C@@H]4C[C@H](O)CC[C@]4(C)[C@H]3CC[C@]12C` [Comparative Example 11], the IC100 in data set [3] (setting [4]) is 500 µM.
As for `COC(=O)CC[C@@H](C)[C@H]1CC[C@H]2[C@@H]3[C@H](OC)C[C@@H]4C[C@H](O)CC[C@]4(C)[C@H]3CC[C@]12C` [Comparative Example 14], in data set [3] (setting [4]), the IC100 turned out to be 500 µM.
Regarding `CC(=O)O[C@@H]1CC[C@@]2(C)[C@@H](C1)C[C@@H](OC(C)=O)[C@@H]1[C@@H]2CC[C@]2(C)[C@@H]([C@H](C)CCC(N)=O)CC[C@@H]12` [Comparative Example 20], the IC100 in data set [3] (setting [4]) was found to be 50 µM.
The same measure, in the same setting: the same measure for `C[C@H](CCC(=O)N1CCCC1)[C@H]1CC[C@H]2[C@@H]3[C@@H](O)C[C@@H]4C[C@H](O)CC[C@]4(C)[C@H]3CC[C@]12C` [Example 1]: 100 µM.
With `C[C@H](CCC(=O)N1CCCC1)[C@H]1CC[C@H]2[C@@H]3[C@H](O)C[C@@H]4C[C@H](O)CC[C@]4(C)[C@H]3CC[C@]12C` [Example 2], in data set [3] (setting [4]), the IC100 is 100 µM.
Same read-out and setting: the figure for `COC(=O)CC[C@@H](C)[C@H]1CC[C@H]2[C@@H]3C[C@H](O)[C@@H]4C[C@H](O)CC[C@]4(C)[C@H]3CC[C@]12C` [Example 3] is 500 µM.
With `CO[C@@H]1CC[C@@]2(C)[C@@H](C1)C[C@H](OS(=O)(=O)[O-])[C@@H]1[C@@H]2CC[C@]2(C)[C@@H]([C@H](C)CCC(=O)N3CCCC3)CC[C@@H]12.[Na+]` [Example 7], in the data set with NAP1 spores, the “Percent Spore Germination t20” value was 30 ± 6%, the “Percent Spore Germination Relative to control” value was 9 ± 5%, the “Percent Spore Germination t0” value is 18 ± 2% and the “inhibitor of spore germination” value is recorded as “potent inhibitors”.
For the molecule `C[C@H](CCC1=NC(C)(C)CO1)[C@H]1CC[C@H]2[C@@H]3[C@@H](O)C[C@@H]4C[C@H](O)CC[C@]4(C)[C@H]3CC[C@]12C` [Example 9], the IC100 in data set [3] (setting [4]) came to 500 µM.
In the case of `C[C@H](CCc1nnn[nH]1)[C@H]1CCC2C3C(CC[C@@]21C)[C@@]1(C)CC[C@@H](O)CC1C[C@@H]3O` (stereo partly shown) [Example 12], in the data set on NAP1 spores, the “Percent Spore Germination t20” value turned out to be 29 ± 4%, the “Percent Spore Germination Relative to control” value worked out at 19 ± 4%, the “Percent Spore Germination t0” value stood at 17 ± 4% and the “inhibitor of spore germination” value was “moderate inhibitors”.
Take `C[C@H](CCc1nnn[n-]1)[C@H]1CC[C@H]2[C@@H]3[C@H](O)C[C@@H]4C[C@H](O)CC[C@]4(C)[C@H]3CC[C@]12C.[Na+]` [Example 14]: the IC100 in data set [3] is 10 µM. In addition, in the data set on NAP1 spores, the “Percent Spore Germination t20” value was determined as 22 ± 6%, the “Percent Spore Germination Relative to control” value is on record as 12 ± 6%, the “Percent Spore Germination t0” value came to 15 ± 6% and the “inhibitor of spore germination” value is “potent inhibitors”.
Turning to `CO[C@@H]1CC[C@@]2(C)[C@@H](C1)C[C@H](O)[C@@H]1[C@@H]2CC[C@]2(C)[C@@H]([C@H](C)CCc3nnn[n-]3)CC[C@@H]12.[Na+]` [Example 15], in the data set with NAP1 spores, the “Percent Spore Germination t20” value is reported as 31 ± 4%, the “Percent Spore Germination Relative to control” value stood at 26 ± 4%, the “Percent Spore Germination t0” value amounted to 16 ± 4% and the “inhibitor of spore germination” value is given as “moderate inhibitors”.
Turning to `CO[C@@H]1CC[C@@]2(C)[C@@H](C1)C[C@@H](O)[C@@H]1[C@@H]2CC[C@]2(C)[C@@H]([C@H](C)CCc3nnn[n-]3)CC[C@@H]12.[Na+]` [Example 16], in data set [3], the IC100 was 5 µM. Besides, in the data set with NAP1 spores, the “Percent Spore Germination t20” value was determined as 21 ± 4%, the “Percent Spore Germination Relative to control” value came to 8 ± 4%, the “Percent Spore Germination t0” value turned out to be 16 ± 4% and the “inhibitor of spore germination” value is “potent inhibitors”.
As to `CO[C@@H]1CC[C@@]2(C)[C@@H](C1)C[C@H](OS(=O)(=O)[O-])[C@@H]1[C@@H]2CC[C@]2(C)[C@@H]([C@H](C)CCc3nnn[n-]3)CC[C@@H]12.[Na+].[Na+]` [Example 17], in the data set with NAP1 spores, the “Percent Spore Germination t20” value was 44 ± 3%, the “Percent Spore Germination Relative to control” value is recorded as 42 ± 3%, the “Percent Spore Germination t0” value is on record as 21 ± 3% and the “inhibitor of spore germination” value is “moderate inhibitors”.
Consider `CO[C@@H]1CC[C@@]2(C)[C@@H](C1)C[C@@H](OS(=O)(=O)[O-])[C@@H]1[C@@H]2CC[C@]2(C)[C@@H]([C@H](C)CCc3nnn[n-]3)CC[C@@H]12.[Na+].[Na+]` [Example 18], for which, in data set [3], the IC100 is on record as 25 µM. Besides, in the data set with NAP1 spores, the “Percent Spore Germination t20” value is listed as 48 ± 11%, the “Percent Spore Germination Relative to control” value was determined as 51 ± 11%, the “Percent Spore Germination t0” value is 20 ± 11% and the “inhibitor of spore germination” value is “moderate inhibitors”.
With `CO[C@@H]1CC[C@@]2(C)[C@@H](C1)C[C@@H](O)[C@@H]1[C@@H]2CC[C@]2(C)[C@@H]([C@H](C)CCC(=O)O)CC[C@@H]12` [KLS-1-012B], the “concentration giving partial inhibition” value in data set [3] was determined as 0.1 mM.
On to `CO[C@@H]1CC[C@@]2(C)[C@@H](C1)C[C@H](OC)[C@@H]1[C@@H]2CC[C@]2(C)[C@@H]([C@H](C)CCC(=O)O)CC[C@@H]12` [KLS-1-014A], for which the “concentration giving partial inhibition” value in data set [3] was 1.0 mM.
Take `CO[C@@H]1CC[C@@]2(C)[C@@H](C1)C[C@H](O)[C@@H]1[C@@H]2CC[C@]2(C)[C@@H]([C@H](C)CCC(=O)O)CC[C@@H]12` [KLS-1-014B]: the “concentration giving partial inhibition” value in data set [3] was 0.50 mM.
In the case of `COC(=O)CC[C@@H](C)[C@H]1CC[C@H]2[C@@H]3[C@H](O)C[C@@H]4C[C@H](OC)CC[C@]4(C)[C@H]3CC[C@]12C` [KLS-1-029D], the IC100 in data set [3] (setting [4]) was found to be 500 µM.
As for `COC(=O)CC[C@@H](C)[C@H]1CC[C@H]2[C@@H]3[C@@H](O)C[C@@H]4C[C@H](OC)CC[C@]4(C)[C@H]3CC[C@]12C` [KLS-1-031C], the IC100 in data set [3] (setting [4]) was found to be 500 µM.
